{
  "source": "patent US9688651B2",
  "about": "“Geranyl geranyl acetone analogs and uses thereof” (NYKEN Holding B.V., priority 2012, dated 2017)",
  "key": {"HSP90": {"tested_on": "HSP90", "experiment": "HSP90 mRNA (qPCR) in HL-1 cardiomyocytes after mild heat shock", "type": "cell-based, mouse", "details": "then compound 10 μM for 6 hours", "method": "(§1) HL-1 cardiomyocytes were subjected to a mild heat shock of 44° C. for 10 minutes. After a recovery of 10 minutes (37 degrees 5% CO2), compounds were added in a final concentration of 10 μM (dissolved in DMSO, final concentration 0.1%). To control myocytes, 0.1% DMSO was added. After six hours the cells were lysed in RIPA buffer and used for Western blotting as described previously.^3, 10 Compounds were also screened for their ability to upregulate HSP gene expression. Hereto, HL-1 cardiomyocytes were first subjected to a mild heat shock which activates the Heat Shock Factor. After the mild heat shock, compound (10 μM) was added to the medium of HL-1 cardiomyocytes for 6 hours, followed by determination of HSP70, HSP25, HSP90 and HSP40 which are targets of the heat shock factor 1 (HSF1) transcription factor. In addition, we determined mRNA levels of the gene encoding the glucose-responsive protein 78 (Grp78) which is HSF1-independent."}, "HSP27": {"tested_on": "HSP27", "experiment": "HSP27 Western blot in MCF-7 cells", "type": "cell-based, human", "parameters": "key: + = P < 0.05; ++ = P < 0.01; +++ = P < 0.001", "details": "MCF-7 lysate, 16-20 hours", "in_short": "(§2)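 MCF-7 cells in DMEM/10% FCS exposed to test compounds at final concentration 10 for 16-20 h; dead/living ratio by trypan blue. RIPA lysates, equal protein, run on 10% SDS gels and immunoblotted; ECL detection with densitometric quantification, GAPDH also probed.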"}, "HSP70 [1]": {"tested_on": "HSP70", "experiment": "HSP70 Western blot in MCF-7 cells", "type": "cell-based, human", "parameters": "key: + = P < 0.05; ++ = P < 0.01; +++ = P < 0.001", "details": "MCF-7 lysate, 16-20 hours", "in_short": "as §2"}, "[2]": {"tested_on": "glucose-responsive protein 78 (Grp78)", "experiment": "Grp78 mRNA (qPCR, HSF1-independent) in HL-1 cardiomyocytes", "type": "cell-based, mouse", "parameters": "key to HSP boosting HL-1 cardiomyocytes mRNA (qPCR) Grp78 Not HSF1: 0 = no induction HSP levels; + = 2-10-fold induction; ++ = 10-30-fold induction; +++ = > 30-fold induction", "method": "as §1"}, "[3]": {"tested_on": "MCF-7 breast cancer cells", "experiment": "MCF-7 cell death, ratio death/living cells (trypan blue)", "type": "cell-based, human", "parameters": "key to Cell Death MCF-7 cancer cells Death/living 100 μM: 0 = no dead cells; + = P < 0.05; ++ = P < 0.01; +++ = P < 0.001", "details": "100 μM; 16-20 hours; trypan blue"}, "[4]": {"tested_on": "HSP70, HSP25, HSP90 and HSP40", "experiment": "Upregulation of HSP gene expression (HSF1 targets) in HL-1 cardiomyocytes", "type": "cell-based, mouse", "details": "HL-1, mild heat shock, 10 μM, 6 hours", "method": "as §1"}, "HSP70 [5]": {"tested_on": "HSP70", "experiment": "HSP70 protein boosting in HL-1 cardiomyocytes after mild heat shock (Western blot)", "type": "cell-based, mouse", "in_short": "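Mouse atrial HL-1 myocytes given mild heat shock (44° C., 10 min), recovered 10 min at 37° C., then exposed to compound at 10 μM final (0.1% DMSO) for 6 h. HSP70 in RIPA lysates measured by Western blot, ECL detection and densitometry.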"}, "HSP70 [6]": {"tested_on": "HSP70", "experiment": "Hsp70 induction in murine proximal tubule (MPT) cells (Western blot)", "type": "cell-based", "details": "40 μM, 5 hours, outperformed positive control GGA", "method": "Murine proximal tubule (MPT) cells were isolated and cultured as described previously (Borkan et al. Heat stress ameliorates ATP depletion-induced sublethal injury in mouse proximal tubule cells. Am. J. Physiol. 1997; F347-55).\nThe MPT cells were exposed to 40 μM of compound for 5 hours, after which the cells were harvested in RIPA buffer followed by Western blotting.\nFor Western-blot analysis, equal amount of protein in SDS-PAGE sample buffer was separated on 10% PAA-SDS gels. After transfer to nitrocellulose membranes (Stratagene, USA), membranes were incubated with primary antibodies against HSP70 (Enzo C92F3A/StressGen SP810) or beta-actin (Sigma A541). Horseradish peroxidase-conjugated anti-mouse or anti-sheep (Jackson ImmunoRes) was used as secondary antibody. Signals were detected by the ECL-detection method (Amersham)."}, "HSP40": {"tested_on": "HSP40", "experiment": "HSP40 mRNA (qPCR) in HL-1 cardiomyocytes after mild heat shock", "type": "cell-based, mouse", "details": "then compound 10 μM for 6 hours", "method": "as §1"}, "HSP25": {"tested_on": "HSP25", "experiment": "HSP25 mRNA (qPCR) in HL-1 cardiomyocytes after mild heat shock", "type": "cell-based, mouse", "details": "then compound 10 μM for 6 hours", "method": "as §1"}, "HSP70 [7]": {"tested_on": "HSP70", "experiment": "HSP70 mRNA (qPCR) in HL-1 cardiomyocytes after mild heat shock", "type": "cell-based, mouse", "details": "then compound 10 μM for 6 hours", "method": "as §1"}, "PARP": {"tested_on": "PARP", "experiment": "PARP cleavage in MCF-7 cells (Western blot)", "type": "cell-based, human", "parameters": "key to Cell Death MCF-7 cancer cells PARP: 0 = no dead cells; + = P < 0.05; ++ = P < 0.01; +++ = P < 0.001", "details": "MCF-7 lysate, Western blot, 16-20 hours", "in_short": "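MCF-7 cells in DMEM/10% FCS exposed to 10 μM compound for 16-20 h; dead versus living cells counted by trypan blue. Lysates in RIPA analysed by Western blot for PARP (plus HSPs, GAPDH), ECL detection with densitometric quantification.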"}, "[8]": {"details": "HL-1, mild heat shock, 10 μM, 6 hours"}},
  "data": [
    {"smiles": "CCOC(=O)C(C/C=C(\\C)CCC=C(C)C)C(=O)c1ccccc1O", "note": "(centres unmarked) [Compound 61, (E)-Ethyl 2-(2-hydroxybenzoyl)-5,9-dimethyldeca-4,8-dienoate]", "values": [
      {"measurement": "HSP boosting HL-1 cardiomyocytes mRNA (qPCR) HSP 90", "setting": "HSP90", "result": "+ (+ = 2-10-fold induction)"},
      {"measurement": "Cell Death MCF-7 cancer cells HSP 27", "setting": "HSP27", "result": 0},
      {"measurement": "Cell Death MCF-7 cancer cells HSP 70", "setting": "HSP70 [1]", "result": 0},
      {"measurement": "upregulation of Grp78 mRNA", "setting": "[2]; [8]", "result": "no upregulation"},
      {"measurement": "HSP boosting HL-1 cardiomyocytes mRNA (qPCR) Grp78 Not HSF1", "setting": "[2]; mild heat shock, then compound 10 μM for 6 hours", "result": 0},
      {"measurement": "Cell Death MCF-7 cancer cells Death/living 100 μM", "setting": "[3]", "result": 0},
      {"measurement": "induction of HSP gene expression", "setting": "[4]", "result": "strong inducers"},
      {"measurement": "induction of mammalian HSP70 protein expression", "setting": "HSP70 [5]; [8]", "result": "potent inducers"},
      {"measurement": "HSP boosting HL-1 cardiomyocytes Protein HSP70", "setting": "HSP70 [5]; mild heat shock 44°C 10 min, then compound 10 μM for 6 hours, Western blot", "result": "++ (++ = 10-30-fold induction)"},
      {"measurement": "induction of HSP70 expression in renal (MPT) cells", "setting": "HSP70 [6]", "result": "strong inducers"},
      {"measurement": "HSP boosting HL-1 cardiomyocytes mRNA (qPCR) HSP 40", "setting": "HSP40", "result": "+ (+ = 2-10-fold induction)"},
      {"measurement": "HSP boosting HL-1 cardiomyocytes mRNA (qPCR) HSP 25", "setting": "HSP25", "result": "+ (+ = 2-10-fold induction)"},
      {"measurement": "HSP boosting HL-1 cardiomyocytes mRNA (qPCR) HSP 70", "setting": "HSP70 [7]", "result": "+ (+ = 2-10-fold induction)"},
      {"measurement": "Cell Death MCF-7 cancer cells PARP", "setting": "PARP", "result": 0}
    ]}
  ]
}
